{
  "source": "paper PMC11599114",
  "about": "(Viruses, 2024)",
  "origin": "cited, not measured here",
  "system": "influenza A virus(oseltamivir-resistant strain)",
  "set-up": "method as in ref 30447229",
  "conditions": "MDCK",
  "data": [
    {"sequence": "KFFRKKSVKK [DRAVPe01822]", "values": [
      {"measurement": "EC50", "value": "18.9 ± 7", "unit": "µM"}
    ]}
  ]
}
